Test system: patients suffering from moderate to severe AD
Assay: MZ-9605 (Therapy Example 1): 28-week double-blind placebo-controlled trial of memantine 20 mg/day
Type: in vivo, human
Experimental: Patients suffering from moderate to severe AD were randomized to placebo or 20 mg memantine daily for 28 weeks. Primary efficacy variables were the Clinician's Interview-Based Impression of Change plus caregiver input (CIBIC-Plus) and the Alzheimer's Disease Cooperative Study Activities of Daily Living Inventory modified for severe dementia (ADCS-ADL). Secondary efficacy variables included the Severe Impairment Battery (SIB) and Neuropsychiatric Inventory (NPI). Treatment differences between baseline and endpoint were assessed. Incomplete observations were imputed using the most recent previous observation (last observation carried forward—LOCF). Results were also analyzed using only the observed values, where missing values were not replaced (Observed Cases (OC) analysis). AD patients (N=252), (67 percent female, mean age=76 years), were randomized from 32 U.S. centers. Of these, 181 completed the study (72 percent) and were evaluated at week 28. Seventy-one patients discontinued treatment prematurely (42 placebo, 29 memantine). Change on the CIBIC-Plus favored memantine over placebo (P=0.06 LOCF, P=0.03 OC) Memantine-treated patients deteriorated less than placebo treated patients on the ADCS-ADL (P=0.02 LOCF, P=0.003 OC) and the SBI (P=<0.001 LOCF, P=0.002 OC). NPI change scores at week 28 were statistically significant. Depending on the type of analysis, this benefit was found in two domains: agitation (p=0.008 LOCF) and delusion (p=0.04 LOCF) or for agitation, only (p=0.023 OC). The finding for agitation also occurred in the dichotomised analyses for memantine-treated patients with and without behavioural symptoms at baseline. […] This study supports the antiglutamatergic treatment approach in moderate to severe AD, a phase associated with patient distress and caregiver burden, for which other treatments are not available and the treatment of behavioral disorders associated therewith.
Community residing patients at least 50 years old with probable AD according to Diagnostic and Statistical Manual of Mental Disorders (DSM-IV) (American Psychiatric Association. Diagnostic and statistical manual of mental disorders. 4th ed. Washington: American Psychiatric Association; 1994.) and National Institute of Neurologic and Communicative Disorders and Stroke and AD and Related Disorders Association (NINCDS-ADRDA) criteria (McKhann G, Drachman D, Folstein M, Katzman R, Price D, Stadlan E M, Clinical diagnosis of Alzheimer's disease: report of the NINCDS-ADRDA Work Group under the auspices of Department of Health and Human Services Task Force on Alzheimer's Disease. Neurology 1984;34:939-44) were recruited. Eligibility criteria included: baseline Mini-Mental State Examination (MMSE) scores of 3-14 (Folstein M F, Folstein, S E, McHugh, P R, Mini-mental state. A practical method for grading the cognitive state of patients for the clinician. J Psychiat Res 1975;12:189-98.), stage 5 or 6 on the Global Deterioration Scale (GDS) (Reisberg B, Ferris S H, de Leon M J, Crook T, The Global Deterioration Scale for assessment of primary degenerative dementia. Am J Psychiatry 1982;139:1136-9.), and a stage of 6a or greater on the Functional Assessment Staging (FAST) (Sclan S G, Reisberg B, Functional assessment staging (FAST) in Alzheimer's disease: reliability, validity, and ordinality. Int Psychogeriatr 1992;4 Suppl 1:55-69.) instrument, signifying the presence of dementia-related deficits in the ability to perform one or more basic activities of daily living. Patients had reliable caregivers and recent (within 12 months) computed tomography (CT) or magnetic resonance imaging (MRI). […]

[1] = MZ-9605, week 28, ITT LOCF, NPI total score <75%
[2] = MZ-9605, week 28, ITT LOCF, NPI total score ≧=75% (top quartile)
[3] = MZ-9605, week 28, ITT LOCF, antipsychotics usage “YES” (N = n)
[4] = MZ-9605, week 28, ITT LOCF, antipsychotics usage “YES” (N = y)
[5] = MZ-9605, week 28, ITT LOCF, baseline NPI agitation score <4
[6] = MZ-9605, week 28, ITT LOCF, baseline NPI agitation score ≧=4
[7] = MZ-9605, week 28, ITT LOCF, overall

## CC12CC3CC(C)(C1)CC(N)(C3)C2 [memantine, 1-amino-3,5-dimethyl adamantane]
20 mg/day, 28 weeks
  adverse events: not associated with significant adverse events
  patients who experienced an adverse event of agitation: 18%
20 mg/day, prior to week 28
  premature discontinuations due to adverse events: 10%
ITT, OC
  Change (baseline to week 28) in NPI domain Aberr. Mot. Behavior: 0.01
  Change (baseline to week 28) in NPI domain Agitation/Aggression: −0.01
  Change (baseline to week 28) in NPI domain Anxiety: 0.51
  Change (baseline to week 28) in NPI domain Apathy/Indifference: −0.25
  Change (baseline to week 28) in NPI domain App./Eating Change: 0.00
  Change (baseline to week 28) in NPI domain Delusions: −0.38
  Change (baseline to week 28) in NPI domain Depression/Dysphoria: 0.00
  Change (baseline to week 28) in NPI domain Disinhibition: −0.53
  Change (baseline to week 28) in NPI domain Elation/Euphoria: 0.18
  Change (baseline to week 28) in NPI domain Hallucinations: 0.47
  Change (baseline to week 28) in NPI domain Irritabililty/Lability: 0.04
  Change (baseline to week 28) in NPI domain Night-time Behavior: 0.05
[1]
  ADCS-ADL (change) LS Mean Diff., MEM v. PLA: 1.48
  ADCS-ADL (change) mean: −3.4
  CIBIC-PLUS Raw Mean Diff., MEM v. PLA: −0.2
  CIBIC-PLUS mean: 4.4
  SIB (change) LS Mean Diff., MEM v. PLA: 3.36
  SIB (change) mean: −5.6
[2]
  ADCS-ADL (change) LS Mean Diff., MEM v. PLA: −3.47
  ADCS-ADL (change) mean: −2.1
  CIBIC-PLUS Raw Mean Diff., MEM v. PLA: −0.4
  CIBIC-PLUS mean: 4.6
  SIB (change) LS Mean Diff., MEM v. PLA: 13.3
  SIB (change) mean: 0.03
[3]
  ADCS-ADL (change) LS Mean Diff., MEM v. PLA: 1.9
  ADCS-ADL (change) mean: −2.7
  CIBIC-PLUS Raw Mean Diff., MEM v. PLA: −0.22
  CIBIC-PLUS mean: 4.47
  SIB (change) LS Mean Diff., MEM v. PLA: 5.1
  SIB (change) mean: −4.1
[4]
  ADCS-ADL (change) LS Mean Diff., MEM v. PLA: 0.9
  ADCS-ADL (change) mean: −5.5
  CIBIC-PLUS Raw Mean Diff., MEM v. PLA: −0.29
  CIBIC-PLUS mean: 4.62
  SIB (change) LS Mean Diff., MEM v. PLA: 10.6
  SIB (change) mean: −2.5
[5]
  ADCS-ADL (change) LS Mean Diff., MEM v. PLA: 1.18
  ADCS-ADL (change) mean: −3.5
  CIBIC-PLUS Raw Mean Diff., MEM v. PLA: −0.2
  CIBIC-PLUS mean: 4.5
  SIB (change) LS Mean Diff., MEM v. PLA: 3.75
  SIB (change) mean: −4.8
[6]
  ADCS-ADL (change) LS Mean Diff., MEM v. PLA: 4.97
  ADCS-ADL (change) mean: −1.2
  CIBIC-PLUS Raw Mean Diff., MEM v. PLA: −0.5
  CIBIC-PLUS mean: 4.4
  SIB (change) LS Mean Diff., MEM v. PLA: 14.05
  SIB (change) mean: −0.5
MZ-9605, week 28, ITT LOCF, baseline NPI agitation score ≧=4, listed as MEM
  ADCS-ADL (change) LS Mean Diff., MEM v. PLA: −4.97
[7]
  ADCS-ADL (change) LS Mean Diff., MEM v. PLA: 2.06
  ADCS-ADL (change) LS mean: −3.02
  CIBIC-PLUS LS mean: 4.48
  CIBIC-PLUS Raw Mean Diff., MEM v. PLA: −0.25
  SIB (change) LS Mean Diff., MEM v. PLA: 5.91
  SIB (change) LS mean: −3.93
At endpoint (LOCF)
  CIBIC-Plus ratings, mean difference memantine v. placebo: 0.3
endpoint, LOCF
  ADCS-ADL total score, mean difference memantine v. placebo: −2.1
  SIB total score, mean difference memantine v. placebo: −2.1
Week 28, OC
  ADCS-ADL total score, mean difference memantine v. placebo: −3.4
  CIBIC-Plus ratings, mean difference memantine v. placebo: 0.4
  SIB total score, mean difference memantine v. placebo: −3.4

Source: US20050203191A1, “1-Aminocyclohexane derivatives for the treatment of agitation and other behavioral disorders, especially those associated with alzheimer's disease” (priority 2004, published 2005)
